Assays:
Assay type in all cases: in vivo
Phakopsora pachyrhizi = assay: Test A: test suspension sprayed on soybean seedlings, inoculated next day with Phakopsora pachyrhizi (Asian soybean rust), visual disease rating; conditions: for Test A rating (% disease control): relative to the controls
Description: General protocol for preparing test suspensions for Tests A-C: the test compounds were first dissolved in acetone in an amount equal to 3% of the final volume and then suspended at the desired concentration (in ppm) in acetone and purified water (50/50 mix by volume) containing 250 ppm of the surfactant PEG400 (polyhydric alcohol esters). The resulting test suspensions were then used in Tests A-C. The test suspension was sprayed to the point of run-off on soybean seedlings. The following day the seedlings were inoculated with a spore suspension of Phakopsora pachyrhizi (the causal agent of Asian soybean rust) and incubated in a saturated atmosphere at 22° C., for 24 h and then moved to a growth chamber at 22° C., for 8 days, after which time visual disease ratings were made. […] A dash (-) indicates the compound was not tested. The test suspensions were sprayed at the concentration listed in the column “Rate in ppm”, unless otherwise indicated.

[1] = system: Puccinia recondita f. sp. tritici; assay: Test C: test suspension sprayed on wheat seedlings, inoculated next day with Puccinia recondita f. sp. tritici (wheat leaf rust), visual disease rating; conditions: for Test C rating (% disease control): relative to the controls
Description: General protocol for preparing test suspensions for Tests A-C: the test compounds were first dissolved in acetone in an amount equal to 3% of the final volume and then suspended at the desired concentration (in ppm) in acetone and purified water (50/50 mix by volume) containing 250 ppm of the surfactant PEG400 (polyhydric alcohol esters). The resulting test suspensions were then used in Tests A-C. The test suspension was sprayed to the point of run-off on wheat seedlings. The following day the seedlings were inoculated with a spore suspension of Puccinia recondita f. sp. tritici; (the causal agent of wheat leaf rust) and incubated in a saturated atmosphere at 20° C., for 24 h, and then moved to a growth chamber at 20° C., for 6 days, after which time visual disease ratings were made. […] A dash (-) indicates the compound was not tested. The test suspensions were sprayed at the concentration listed in the column “Rate in ppm”, unless otherwise indicated.

Zymoseptoria tritici = assay: Test B: test suspension sprayed on wheat seedlings, inoculated next day with Zymoseptoria tritici (wheat leaf blotch), visual disease rating
Description: General protocol for preparing test suspensions for Tests A-C: the test compounds were first dissolved in acetone in an amount equal to 3% of the final volume and then suspended at the desired concentration (in ppm) in acetone and purified water (50/50 mix by volume) containing 250 ppm of the surfactant PEG400 (polyhydric alcohol esters). The resulting test suspensions were then used in Tests A-C.
The test suspension was sprayed to the point of run-off on wheat seedlings. The following day the seedlings were inoculated with a spore suspension of Zymoseptoria tritici (the causal agent of wheat leaf blotch) and incubated in a saturated atmosphere at 24° C., for 48 h, and then moved to a growth chamber at 20° C., for 17 days, after which time visual disease ratings were made.
Results for Tests A-C are given in Table A. In the Table, a rating of 100 indicates 100% disease control and a rating of 0 indicates no disease control (relative to the controls). A dash (-) indicates the compound was not tested. The test suspensions were sprayed at the concentration listed in the column “Rate in ppm”, unless otherwise indicated. An asterisk “*” next to the rating indicates a 250 ppm test suspension was used, a double asterisk “**” next to the rating indicates a 100 ppm test suspension was used, and a triple asterisk “***” next to the rating indicates a 50 ppm test suspension was used.

| Molecule | Test A rating (% disease control) (Phakopsora pachyrhizi; Rate 10 ppm test suspension) [%] | Test C rating (% disease control) ([1]; Rate 10 ppm test suspension) [%] | other results |
| --- | --- | --- | --- |
| 1,3-dihydro-1-methyl-3-[[4-[5-(trifluoromethyl)-1,2,4-oxadiazol-3-yl]phenyl]methyl]-2H-benzimidazol-2-one [Compound 159] | – | – | Test A disease control rating (Phakopsora pachyrhizi; 250 ppm test suspension): 100%; Test C disease control rating ([1]; 250 ppm test suspension): 100%; Test B disease control rating (Zymoseptoria tritici; 250 ppm test suspension): 0% |
| 1-[[4-[5-(trifluoromethyl)-1,2,4-oxadiazol-3-yl]phenyl]methyl]-2(1H)-quinoxalinone [Compound 158] | – | – | Test A disease control rating (Phakopsora pachyrhizi; 250 ppm test suspension): 100%; Test C disease control rating ([1]; 250 ppm test suspension): 100%; Test B disease control rating (Zymoseptoria tritici; 250 ppm test suspension): 0% |
| 2-[[4-[5-(trifluoromethyl)-1,2,4-oxadiazol-3-yl]phenyl]methyl]-1H-isoindole-1,3(2H)-dione [Compound 90] | – | – | Test A disease control rating (Phakopsora pachyrhizi; 260 ppm test suspension): 100%; Test C disease control rating ([1]; 260 ppm test suspension): 100%; Test B disease control rating (Zymoseptoria tritici; 260 ppm test suspension): 100% |
| 4,5-dihydro-2-[[4-[5-(trifluoromethyl)-1,2,4-oxadiazol-3-yl]phenyl]methyl]-4-oxazolecarboxamide [Compound 75] | – | – | Test A disease control rating (Phakopsora pachyrhizi; 250 ppm test suspension): 100%; Test C disease control rating ([1]; 250 ppm test suspension): 100%; Test B disease control rating (Zymoseptoria tritici; 250 ppm test suspension): 98% |
| 4,5-dihydro-N,N-dimethyl-2-[[4-[5-(trifluoromethyl)-1,2,4-oxadiazol-3-yl]phenyl]methyl]-4-oxazolecarboxamide [Compound 178] | – | – | Test A disease control rating (Phakopsora pachyrhizi; 260 ppm test suspension): 100%; Test C disease control rating ([1]; 260 ppm test suspension): 100%; Test B disease control rating (Zymoseptoria tritici; 260 ppm test suspension): 93% |
| COC(=O)c1nccn(Cc2ccc(-c3noc(C(F)(F)F)n3)cc2)c1=O [compound 423] | 86 | 80 | – |
| CCOC(=O)c1cnn(Cc2ccc(-c3noc(C(F)(F)F)n3)cn2)c1 [compound 424] | 100 | 96 | – |
| COC(=O)c1cnn(CCCc2ccc(-c3noc(C(F)(F)F)n3)cc2)c1 [compound 427] | – | – | Test A rating (% disease control) (Phakopsora pachyrhizi; Rate 50 ppm test suspension): 100%; Test C rating (% disease control) ([1]; Rate 50 ppm test suspension): 67% |
| CCOC(=O)c1cnn(CCCc2ccc(-c3noc(C(F)(F)F)n3)cc2)c1 [compound 428] | – | – | Test A rating (% disease control) (Phakopsora pachyrhizi; Rate 50 ppm test suspension): 100%; Test C rating (% disease control) ([1]; Rate 50 ppm test suspension): 100% |
| CCOC(=O)C1(Cc2ccc(-c3noc(C(F)(F)F)n3)cc2)CCNC1=O (stereo not shown) [compound 431] | – | – | Test A rating (% disease control) (Phakopsora pachyrhizi; Rate 50 ppm test suspension): 99%; Test C rating (% disease control) ([1]; Rate 50 ppm test suspension): 98% |
| CCOC(=O)C1(Cc2ccc(-c3noc(C(F)(F)F)n3)cc2)CCCNC1=O (stereo not shown) [compound 432] | – | – | Test A rating (% disease control) (Phakopsora pachyrhizi; Rate 50 ppm test suspension): 100%; Test C rating (% disease control) ([1]; Rate 50 ppm test suspension): 92% |
| FC(F)(F)c1nc(-c2ccc(Cn3cc4cnc(Cl)nc4n3)cc2)no1 [compound 433] | 100 | 99 | – |
| CSCC(=O)COC(=O)c1cnn(Cc2ccc(-c3noc(C(F)(F)F)n3)cc2)c1 [compound 434] | 100 | 98 | – |
| N#Cc1cnn(CCCc2ccc(-c3noc(C(F)(F)F)n3)cc2)c1 [compound 435] | 100 | 74 | – |
| COC(=O)c1cnn(CCCc2ccc(-c3noc(C(F)(F)F)n3)cc2)c1 [compound 436] | 100 | 74 | – |
| CCOC(=O)c1cnn(CCCc2ccc(-c3noc(C(F)(F)F)n3)cc2)c1 [compound 437] | 100 | 86 | – |
| CCCOC(=O)c1cnn(Cc2cc(OC)c(-c3noc(C(F)(F)F)n3)s2)c1 [compound 439] | 0 | 0 | – |
| C=CCOC(=O)c1cnn(Cc2cc(OC)c(-c3noc(C(F)(F)F)n3)s2)c1 [compound 440] | 0 | 0 | – |
| CC(=O)Nc1cnn(Cc2ccc(-c3noc(C(F)(F)F)n3)cc2)c1 [compound 441] | 87 | 9 | – |
| CS(=O)(=O)Nc1cnn(Cc2ccc(-c3noc(C(F)(F)F)n3)cc2)c1 [compound 442] | 44 | 0 | – |
| CCOC(=O)Nc1cnn(Cc2ccc(-c3noc(C(F)(F)F)n3)cc2)c1 [compound 443] | 100 | 74 | – |
| FC(F)(F)c1nc(-c2ccc(Cn3ncc4c(I)ccnc43)cc2)no1 [compound 444] | 96 | 86 | – |

| Molecule | Test A rating (% disease control) (Phakopsora pachyrhizi; Rate 10 ppm test suspension) [%] | Test C rating (% disease control) ([1]; Rate 10 ppm test suspension) [%] | other results |
| --- | --- | --- | --- |
| FC(F)(F)c1nc(-c2ccc(Cn3cc4c(I)ccnc4n3)cc2)no1 [compound 445] | 100 | 99 | – |
| Nc1nn(Cc2ccc(-c3noc(C(F)(F)F)n3)cc2)c2ncccc12 [compound 446] | 99 | 86 | – |
| CCCCCOC(=O)c1cnn(Cc2ccc(-c3noc(C(F)(F)F)n3)cc2)c1 [compound 447] | 100 | 100 | – |
| O=C(OCCCCl)c1cnn(Cc2ccc(-c3noc(C(F)(F)F)n3)cc2)c1 [compound 448] | 100 | 100 | – |
| O=C(NCC(F)(F)F)c1cnn(Cc2ccc(-c3noc(C(F)(F)F)n3)cc2)c1 [compound 449] | 100 | 100 | – |
| CCOC(=O)c1cnn(Cc2ccc3cc(-c4noc(C(F)(F)F)n4)ccc3c2)c1 [compound 457] | – | – | Test A rating (% disease control) (Phakopsora pachyrhizi; Rate 50 ppm test suspension): 77%; Test C rating (% disease control) ([1]; Rate 50 ppm test suspension): 0% |
| O=C1N(Cc2ccc(-c3noc(C(F)(F)F)n3)cc2)CCc2cncn21 [compound 462] | 100 | 89 | – |
| COCCCOC(=O)c1cnn(Cc2ccc(-c3noc(C(F)(F)F)n3)cc2)c1 [compound 474] | 100 | 100 | – |
| O=C(OCCN1CCOCC1)c1cnn(Cc2ccc(-c3noc(C(F)(F)F)n3)cc2)c1 [compound 475] | 100 | 91 | – |
| CCOC(=O)COC(=O)c1cnn(Cc2ccc(-c3noc(C(F)(F)F)n3)cc2)c1 [compound 476] | 100 | 86 | – |
| O=C(OCCCl)c1cnn(Cc2ccc(-c3noc(C(F)(F)F)n3)cc2)c1 [compound 477] | 100 | 100 | – |
| O=C(OCCBr)c1cnn(Cc2ccc(-c3noc(C(F)(F)F)n3)cc2)c1 [compound 478] | – | – | Test A rating (% disease control) (Phakopsora pachyrhizi; Rate 50 ppm test suspension): 81%; Test C rating (% disease control) ([1]; Rate 50 ppm test suspension): 19% |
| O=C(OCc1ccccn1)c1cnn(Cc2ccc(-c3noc(C(F)(F)F)n3)cc2)c1 [compound 479] | 100 | 100 | – |
| CC(C)CCOC(=O)c1cnn(Cc2ccc(-c3noc(C(F)(F)F)n3)cc2)c1 [compound 480] | 100 | 98 | – |
| CCC(C)OC(=O)c1cnn(Cc2ccc(-c3noc(C(F)(F)F)n3)cc2)c1 (stereo not shown) [compound 481] | 100 | 100 | – |
| C=C(Cl)COC(=O)c1cnn(Cc2ccc(-c3noc(C(F)(F)F)n3)cc2)c1 [compound 482] | 100 | 100 | – |
| O=C(NCc1cccnc1)c1cnn(Cc2ccc(-c3noc(C(F)(F)F)n3)cc2)c1 [compound 483] | 100 | 54 | – |
| O=C(NCc1ccccc1)c1cnn(Cc2ccc(-c3noc(C(F)(F)F)n3)cc2)c1 [compound 484] | 100 | 100 | – |
| O=C(Nc1ccccc1)c1cnn(Cc2ccc(-c3noc(C(F)(F)F)n3)cc2)c1 [compound 485] | 100 | 99 | – |
| C=C(C#N)COC(=O)c1cnn(Cc2ccc(-c3noc(C(F)(F)F)n3)cc2)c1 [compound 486] | 100 | 89 | – |
| Cc1ccc(C(O)c2ccc(-c3noc(C(F)(F)F)n3)cc2)cc1 (stereo not shown) [compound 501] | 100 | 0 | – |

Reference: US12606548B2, “Fungicidal oxadiazoles” (FMC CORPORATION, priority 2019, dated 2026)
